# Measured values: patent US20110098177A1, “METHODS AND COMPOSITIONS OF PLANT MICRONUTRIENTS” (NOVUS INTERNATIONAL INC., priority 2006, published 2011)
# Assays:
# Assay type in all cases: in vivo
# Tygress tomato plants [1] = experiment: Foliar nutrient concentration 2 weeks after treatment, greenhouse tomato (Examples 4-6); settings: for B concentration in tomato leaves / Ca concentration in tomato leaves / Cu concentration in tomato leaves / Fe concentration in tomato leaves / K concentration in tomato leaves / Mg concentration in tomato leaves / Mn concentration in tomato leaves / N concentration in tomato leaves / P concentration in tomato leaves: 2 weeks after treatment
# Experimental: (§1) The following experiments were performed in a green house during the fall of 2008 and spring of 2009 at GCREC, Balm, University of Florida. Crop set-up, procedures and variables were as follows.
# (§2) Transplants of Tygress' tomato plants were planted in 2-gallon pots filled with commercial planting medium with nutrient concentration of Fe, Zn, Mn, Cu being negligible and insufficient for crop growth. Irrigation and non-micronutrient fertilizer were provided daily through microsprinklers at recommended rates for tomato production in Florida. No pesticides were used. Treatments were as described in Tables 4, 5 and 6 below.
# (§3) Treatments were applied at 5 WAT (weeks after transplanting) using a water volume of 200 mL/plant. A non-ionic surfactant was added. Foliar tissue analysis was performed at 3 and 7 WAT on the non-applied newest leaves. The concentrations of N, P, K, Mg, Ca, B, Zn, Mn, Fe, and Cu in the foliar tissue were determined from foliar analysis by a commercial laboratory at 2 weeks before treatment and again at 2 weeks after treatment.
# (§4) Deionized water was used for foliar applications, and other nutrients were applied as appropriate under non-limiting conditions. Marketable fruit were collected three times during the growing season, starting at 10 WAT (5 weeks after the initial treatment). Tomato fruit was graded as extra-large, large and medium. Non-marketable fruit were harvested and number and weight recorded but not sized.
# (§5) Experimental design was a randomized complete block design with 6 replications. Data were analyzed using a general linear model, and means were separated using an LSD test at the 5% significance level.
# Tygress tomato plants [2] = experiment: Yields of tomato fruits, greenhouse (Examples 4-6); settings: for Marketable yield: tomato fruits
# Experimental: as §1, §2, §3, §4, §5
# Tygress tomato plants [3] = experiment: Plant injury observed after BIOX-A foliar application, greenhouse tomato (Example 6); settings: BIOX-A at concentrations of 2.86 or higher
# Experimental: The following experiments were performed in a green house during the fall of 2008 and spring of 2009 at GCREC, Balm, University of Florida. Crop set-up, procedures and variables were as follows. […] Irrigation and non-micronutrient fertilizer were provided daily through microsprinklers at recommended rates for tomato production in Florida. No pesticides were used. Treatments were as described in Tables 4, 5 and 6 below. […] Treatments were applied at 5 WAT (weeks after transplanting) using a water volume of 200 mL/plant. A non-ionic surfactant was added. […] There were no significant differences between the foliar nutrient concentration of the leaves of any of the treatment groups prior to treatment.
smiles,measurement,setting,value
"CSCCC(O)C(=O)O (stereo not shown) [BIOX-A, 2-hydroxy-4(methylthio)butanoic acid]",B concentration in tomato leaves,Tygress tomato plants [1]; BIOX-A 0.69 lb/acre,27 ppm
same,Ca concentration in tomato leaves,Tygress tomato plants [1]; BIOX-A 0.69 lb/acre,0.5%
same,Cu concentration in tomato leaves,Tygress tomato plants [1]; BIOX-A 0.69 lb/acre,29 ppm
same,Fe concentration in tomato leaves,Tygress tomato plants [1]; BIOX-A 0.69 lb/acre,85 ppm
same,K concentration in tomato leaves,Tygress tomato plants [1]; BIOX-A 0.69 lb/acre,3.2%
same,Mg concentration in tomato leaves,Tygress tomato plants [1]; BIOX-A 0.69 lb/acre,0.3%
same,Mn concentration in tomato leaves,Tygress tomato plants [1]; BIOX-A 0.69 lb/acre,56 ppm
same,N concentration in tomato leaves,Tygress tomato plants [1]; BIOX-A 0.69 lb/acre,3.4%
same,P concentration in tomato leaves,Tygress tomato plants [1]; BIOX-A 0.69 lb/acre,0.6%
same,B concentration in tomato leaves,Tygress tomato plants [1]; BIOX-A 1.37 lb/acre,28 ppm
same,Ca concentration in tomato leaves,Tygress tomato plants [1]; BIOX-A 1.37 lb/acre,0.6%
same,Cu concentration in tomato leaves,Tygress tomato plants [1]; BIOX-A 1.37 lb/acre,31 ppm
same,Fe concentration in tomato leaves,Tygress tomato plants [1]; BIOX-A 1.37 lb/acre,88 ppm
same,K concentration in tomato leaves,Tygress tomato plants [1]; BIOX-A 1.37 lb/acre,3.4%
same,Mg concentration in tomato leaves,Tygress tomato plants [1]; BIOX-A 1.37 lb/acre,0.3%
same,Mn concentration in tomato leaves,Tygress tomato plants [1]; BIOX-A 1.37 lb/acre,55 ppm
same,N concentration in tomato leaves,Tygress tomato plants [1]; BIOX-A 1.37 lb/acre,3.7%
same,P concentration in tomato leaves,Tygress tomato plants [1]; BIOX-A 1.37 lb/acre,0.4%
same,B concentration in tomato leaves,Tygress tomato plants [1]; BIOX-A 2.86 lb/acre,28 ppm
same,Ca concentration in tomato leaves,Tygress tomato plants [1]; BIOX-A 2.86 lb/acre,0.6%
same,Cu concentration in tomato leaves,Tygress tomato plants [1]; BIOX-A 2.86 lb/acre,50 ppm
same,Fe concentration in tomato leaves,Tygress tomato plants [1]; BIOX-A 2.86 lb/acre,87 ppm
same,K concentration in tomato leaves,Tygress tomato plants [1]; BIOX-A 2.86 lb/acre,3.3%
same,Mg concentration in tomato leaves,Tygress tomato plants [1]; BIOX-A 2.86 lb/acre,0.1%
same,Mn concentration in tomato leaves,Tygress tomato plants [1]; BIOX-A 2.86 lb/acre,54 ppm
same,N concentration in tomato leaves,Tygress tomato plants [1]; BIOX-A 2.86 lb/acre,3.1%
same,P concentration in tomato leaves,Tygress tomato plants [1]; BIOX-A 2.86 lb/acre,0.4%
same,B concentration in tomato leaves,Tygress tomato plants [1]; BIOX-A 5.52 lb/acre,24 ppm
same,Ca concentration in tomato leaves,Tygress tomato plants [1]; BIOX-A 5.52 lb/acre,0.6%
same,Cu concentration in tomato leaves,Tygress tomato plants [1]; BIOX-A 5.52 lb/acre,28 ppm
same,Fe concentration in tomato leaves,Tygress tomato plants [1]; BIOX-A 5.52 lb/acre,90 ppm
same,K concentration in tomato leaves,Tygress tomato plants [1]; BIOX-A 5.52 lb/acre,2.1%
same,Mg concentration in tomato leaves,Tygress tomato plants [1]; BIOX-A 5.52 lb/acre,0.1%
same,Mn concentration in tomato leaves,Tygress tomato plants [1]; BIOX-A 5.52 lb/acre,53 ppm
same,N concentration in tomato leaves,Tygress tomato plants [1]; BIOX-A 5.52 lb/acre,2.7%
same,P concentration in tomato leaves,Tygress tomato plants [1]; BIOX-A 5.52 lb/acre,0.5%
same,B concentration in tomato leaves,Tygress tomato plants [1]; BIOX-A 8.28 lb/acre,25 ppm
same,Ca concentration in tomato leaves,Tygress tomato plants [1]; BIOX-A 8.28 lb/acre,0.5%
same,Cu concentration in tomato leaves,Tygress tomato plants [1]; BIOX-A 8.28 lb/acre,25 ppm
same,Fe concentration in tomato leaves,Tygress tomato plants [1]; BIOX-A 8.28 lb/acre,9 ppm
same,K concentration in tomato leaves,Tygress tomato plants [1]; BIOX-A 8.28 lb/acre,0.9%
same,Mg concentration in tomato leaves,Tygress tomato plants [1]; BIOX-A 8.28 lb/acre,0.1%
same,Mn concentration in tomato leaves,Tygress tomato plants [1]; BIOX-A 8.28 lb/acre,57 ppm
same,N concentration in tomato leaves,Tygress tomato plants [1]; BIOX-A 8.28 lb/acre,1.7%
same,P concentration in tomato leaves,Tygress tomato plants [1]; BIOX-A 8.28 lb/acre,0.6%
same,"Effect on foliar concentration of N, P, K, Mg, Ca, B, Mn, Fe and Zn relative to the control","Tygress tomato plants [1]; BIOX-A, all applied concentrations, P>0.05",None of the applied concentrations of BIOX-A had a significant effect
same,Marketable and unmarketable yields (in words),Tygress tomato plants [2]; 1.37 lb/acre or less of BIOX-A,statistically similar
same,Marketable yield,Tygress tomato plants [2]; BIOX-A 0.69 lb/acre,2.3 lb/plant
same,Marketable yield,Tygress tomato plants [2]; BIOX-A 1.37 lb/acre,2.4 lb/plant
same,Marketable yield,Tygress tomato plants [2]; BIOX-A 2.86 lb/acre,1.1 lb/plant
same,Marketable yield,Tygress tomato plants [2]; BIOX-A 5.52 lb/acre,0 lb/plant
same,Marketable yield,Tygress tomato plants [2]; BIOX-A 8.28 lb/acre,0 lb/plant
same,Non-marketable tomato yields compared with control (in words),Tygress tomato plants [2]; BIOX-A at concentrations of 2.86 or higher,significantly higher non-marketable tomato yields than control
same,Marketable tomato yields (in words),"Tygress tomato plants [2]; BIOX-A at concentrations of 2.86 or higher, P<0.05",significantly decreased
same,Plant injury (in words),Tygress tomato plants [3],severely injured tomato plants
